In assay [1] the target is T1, NMDA receptors (NR2B subunit containing) (Rattus norvegicus, UniProt P35439+Q00960).
T1 construct: endogenous in cells; host or cells: primary neocortical neurons from 17 day old Charles River rat embryos, 4-7 days in vitro
The assay is described as follows: Functional NMDA antagonist potency: intracellular calcium measurement in primary cultures of rat cortical neurons (fluorimeter plate reader). Type of assay: cell-based. Particulars: rat cortical neurons 4-7 days in vitro, 40 μM NMDA, Fluo-4 intracellular Ca2+; read-out: NMDA IC50. From the text: Assessing the Functional NMDA Antagonist Potency of Compounds in Primary Cultures of Rat Cortical Neurons Based on Measuring the Intracellular Calcium Concentration Using a Fluorimeter Plate Reader
It is known that during postnatal development the subunit composition of neuronal NMDA receptors is changing. […] According to data in the literature and to our own immunocytochemical examinations neuronal cells cultured for 4-7 days in vitro predominantly express the NR2B subunit, together with NR1 subunit. Therefore, functional test of NMDA antagonism in these cells reflects mainly an action on NR2B subunit containing receptors. Since NMDA receptors are known to be permeable to calcium ions upon excitation, the extent of NMDA receptor activation, and its inhibition by functional antagonists can be characterised by measuring the rise in the intracellular calcium concentration following agonist (NMDA) application onto the cells. Since there is very high sequence homology between rat and human NMDA receptors (99, 95, 97% for NR1, NR2A, and NR2B subunits, respectively), it is believed that there is little, if any, difference in their pharmacological sensitivity.
In: Protocols for Neural Cell Culture, eds: Fedoroff, S.; Richardson A., The Humana Press Inc., 13-38.] After isolation, the cells are plated onto standard 96-well microplates and the cultures are maintained in an atmosphere of 95% air-5% CO2 at 37° C. until testing.
The cultures are used for the intracellular calcium measurements after 4-7 days in vitro. […] Loading is stopped by washing twice with the solution used also during the measurement (140 mM NaCl, 5 mM KCl, 2 mM CaCl2, 5 mM HEPES [4-(2-hydroxyethyl)-1-piperazineethane-sulfonic acid], 5 mM HEPES-Na, 20 mM glucose, 10 μM glycine, pH=7.4). Then the test compound dissolved in the above solution (90 μl/well) is added. Intracellular calcium measurements are carried out with a plate reader fluorimeter. A rise is induced by application of 40 μM NMDA in Fluo-4-fluorescence that reflects the intracellular calcium concentration. Inhibitory potency of the test compound is assessed by measuring the reduction in the calcium elevation in the presence of different concentrations of the compound. After the measurement, a standard calibration procedure [Meth. Cell.
Inhibitory potency of a compound at a single concentration point is expressed as percent inhibition of the control NMDA response. Sigmoidal concentration-inhibition curves are fitted over the data and IC50 values are defined as the concentration that produces half of the maximal inhibition that could be achieved with the compound. Mean IC50 values are derived from at least three independent experiments.
(§1) wherein for NMDA IC50—IC50 is determined by the intracellular Ca^2+-concentartion assay on cortical neurons; and for Ro-binding IC50—IC50 is determined by the [^3H]-Ro 25,6981 binding assay on rat cerebral membranes.

A further assay has as its target T2, NR2B subunit (Rattus norvegicus, UniProt P35439+Q00960).
T2 construct: from tissue; host or cells: forebrain membranes of male Wistar rats
The assay is described as follows: [3H]-Ro 25,6981 binding assay on rat cerebral membranes. The settings on record: rat forebrain membranes, 4 nM [3H]-Ro 25,6981, 2 hours at room temperature; read-out: Ro-binding IC50. As to the method: Determining Binding of Compounds to NR2B Subunit by [^3H]-Ro 25,6981 Binding Assay
Briefly, membranes are isolated from the forebrain of male Wistar rats. They are incubated in the presence and absence of test compound for 2 hours at room temperature. […] The applied radioligand (^3H-Ro-25,6981) concentration is 4 nM.
as §1

A further assay concerns NMRI mice. The assay is described as follows: Mouse formalin test (second phase) for in vivo efficacy. Particulars: p.o. 15 min before formalin, licking time 20 to 25 min after formalin, >20 = inhibition less than 50% at 20 mg/kg p.o. As to the method:
Mouse Formalin Test for Measurement of In Vivo Efficacy
Injection of diluted formalin into the hind paw of rats or mouse is known to elicit a biphasic pain related behaviour measured as time spent by licking/biting of the injured paw. The second phase is generally defined as pain related events detected in the 15-60 min. time interval after formalin injection. It is known that NMDA receptors are involved in the second phase of response to formalin injection and this behavioural response is sensitive to blockade of NMDA receptors [Dickenson, A. and Besson J.-M. (Eds.): Chapter 1, pp. 6-7: Animal models of Analgesia; and Chapter 8, pp. 180-183: Mechanism of Central Hypersensitivity: Excitatory Amino Acid Mechanisms and Their Control—In Pharmacology of Pain. Springer-Verlag (Berlin) 1997.] Therefore, we performed the second phase of formalin test to characterise the efficacy of compounds in vivo. Inhibition of the second phase of response is considered to indicate an analgesic effect against chemically-induced persistent pain [Hunskaar, S., et al.: Formalin Test in Mice, a Useful Technique for Evaluating Mild Analgesics, Journal of Neuroscience Methods, 14 (1985) 69-76.] Male albino Charles River NMRI mice (20-25 g) were used. Prior to the experiment any solid food was withdrawn for 16 hours but the animals had free access to 20% glucose solution. The animals were allowed a 1 hour acclimatisation period spent in a glass cylinder (cc. 15 cm in diameter), then moved to an identical cylinder with a mirror placed behind to facilitate observation. The test substances were suspended in 5% tween-80 (10 ml per kg body weight). and administered orally by gavage 15 min before the formalin injection (20 μl of 1% formalin in 0.9% saline injected subcutaneously into the dorsal surface of the right hindpaw). The time spent by licking and biting of the injected paw was measured from 20 to 25 min. after the formalin injection.

Each structure is given as a SMILES string.

T2 sequence (Q00960 27-1482, other chains not shown): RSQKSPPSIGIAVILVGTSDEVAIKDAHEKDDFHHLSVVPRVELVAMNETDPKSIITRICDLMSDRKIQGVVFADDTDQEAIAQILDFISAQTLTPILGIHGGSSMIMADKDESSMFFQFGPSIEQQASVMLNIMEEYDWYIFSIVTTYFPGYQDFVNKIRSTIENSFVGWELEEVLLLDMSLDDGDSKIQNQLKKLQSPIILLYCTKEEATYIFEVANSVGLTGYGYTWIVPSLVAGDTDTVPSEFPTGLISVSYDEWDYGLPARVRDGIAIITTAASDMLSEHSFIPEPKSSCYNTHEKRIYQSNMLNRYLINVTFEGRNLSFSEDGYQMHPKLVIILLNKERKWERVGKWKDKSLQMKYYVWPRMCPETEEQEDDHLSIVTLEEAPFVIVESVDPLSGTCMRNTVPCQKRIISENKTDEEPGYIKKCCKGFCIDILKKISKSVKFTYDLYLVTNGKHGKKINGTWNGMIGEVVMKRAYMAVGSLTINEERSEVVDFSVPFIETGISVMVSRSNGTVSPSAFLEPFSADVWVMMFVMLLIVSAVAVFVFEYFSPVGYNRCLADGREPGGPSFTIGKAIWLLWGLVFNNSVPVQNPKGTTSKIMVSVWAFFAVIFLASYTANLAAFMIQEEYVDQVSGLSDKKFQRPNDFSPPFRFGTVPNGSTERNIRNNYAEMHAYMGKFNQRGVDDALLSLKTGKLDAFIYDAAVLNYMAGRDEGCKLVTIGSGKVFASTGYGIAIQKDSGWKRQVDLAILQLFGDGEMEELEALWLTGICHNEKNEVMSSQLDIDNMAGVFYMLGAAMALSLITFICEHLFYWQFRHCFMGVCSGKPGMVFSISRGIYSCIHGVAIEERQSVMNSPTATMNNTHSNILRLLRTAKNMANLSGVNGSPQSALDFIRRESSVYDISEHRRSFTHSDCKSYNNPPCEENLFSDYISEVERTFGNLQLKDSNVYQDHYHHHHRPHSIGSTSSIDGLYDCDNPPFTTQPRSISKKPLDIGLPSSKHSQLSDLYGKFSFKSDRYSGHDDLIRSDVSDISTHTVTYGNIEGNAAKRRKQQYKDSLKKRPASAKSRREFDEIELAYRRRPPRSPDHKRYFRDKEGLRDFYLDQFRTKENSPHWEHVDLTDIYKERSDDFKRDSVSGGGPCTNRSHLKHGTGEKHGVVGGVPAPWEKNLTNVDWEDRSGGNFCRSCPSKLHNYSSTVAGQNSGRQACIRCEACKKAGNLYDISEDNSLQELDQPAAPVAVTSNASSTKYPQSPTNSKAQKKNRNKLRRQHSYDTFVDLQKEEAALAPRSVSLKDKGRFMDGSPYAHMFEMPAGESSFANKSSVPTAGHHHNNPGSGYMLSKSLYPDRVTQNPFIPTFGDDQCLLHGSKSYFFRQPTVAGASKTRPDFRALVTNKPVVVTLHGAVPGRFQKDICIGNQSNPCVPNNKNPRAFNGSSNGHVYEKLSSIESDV
T1 sequence (Q00960 27-1482, other chains not shown): as above

A word on the IC50: it is the concentration that gives 50% inhibition. With `O=C(CCN1CCC(Cc2ccc(F)cc2)CC1)c1ccc2[nH]c(=O)oc2c1` [EMD 95885, reference compound], the IC50 came out at 35 nM in assay [1] and 7.2 nM on NR2B subunit. In the assay with NMRI mice, the “ED50 (mg/kg p.o.)” value is given as 5.9 mg/kg.
